Assay results reported in ChEMBL document CHEMBL3046119, “QSAR evaluation of cyanohydrins' fumigation toxicity to house fly (Musca domestica) and lesser grain borer (Rhyzopertha dominica)” (2002).

Legend:
[1] = system: Musca domestica; test: Insecticidal activity against Musca domestica (house fly) after 24 hr; format: functional
[2] = system: Rhyzopertha dominica; test: Insecticidal activity against Rhyzopertha dominica after 24 hr; format: functional

With C=CC(C#N)OC (stereo unspecified) the LC50 [1] was 4.22 µM and the LC50 [2] was 9.06 µM.

Compound C=CC(O)C#N (stereo unspecified) has an LC50 [1] of 0.67 µM and an LC50 [2] of 4.45 µM.

Compound CC(O)(C#N)CF (stereo unspecified) has an LC50 [1] of 0.87 µM and an LC50 [2] of 3.2 µM.

C=CC(C#N)OC(C)=O (stereo unspecified) [1-CYANOALLYL ACETATE] showed an LC50 [1] of 2.08 µM and an LC50 [2] of 2.96 µM.

With C=CC(C#N)OC(=O)C(C)(C)C (stereo unspecified) [1-CYANOALLYL PIVALATE] the LC50 [1] was 8.19 µM and the LC50 [2] was 14.4 µM.

C=CC(C#N)OC(=O)CC (stereo unspecified) [1-CYANOALLYL PROPIONATE] was tested, and the LC50 [1] was 4.74 µM and the LC50 [2] was 5.03 µM.

N#CC(O)C1CC1 (stereo unspecified) [CYCLOPROPYLCARBOXALDEHYDE] showed an LC50 [1] of 1.54 µM and an LC50 [2] of 4.12 µM.

With CC(O)(C#N)C1CC1 (stereo unspecified) [CYCLOPROPYLMETHYLKETONE CYANOHYDRIN] the LC50 [1] was 1.35 µM and the LC50 [2] was 3.6 µM.

CC=C(Cl)Cl [DICHLOROPROPENE] was tested, and the LC50 [1] was 8.11 µM and the LC50 [2] was 49.3 µM.

COP(=O)(OC)OC=C(Cl)Cl [DICHLORVOS] was tested, and the LC50 [1] was 0.05 µM and the LC50 [2] was 1.31 µM.

CC(C)(O)C#N [DIMETHYLKETONE CYANOHYDRIN] was tested, and the LC50 [1] was 0.82 µM and the LC50 [2] was 4.7 µM.

CCC(C)(O)C#N (stereo unspecified) [METHYLETHYL KETONE CYANOHYDRIN] gave an LC50 [1] of 0.91 µM and an LC50 [2] of 4.14 µM.

C=CC(C)(O)C#N (stereo unspecified) [METHYLVINYL KETONE CYANOHYDRIN] showed an LC50 [1] of 2.27 µM and an LC50 [2] of 9.47 µM.
